Assay results: patent US7445765B2, “Radiopharmaceutical for diagnostic imaging containing a technetium-99m nitride heterocomplex” (Nihon Medi-Physics Co., Ltd., priority 2000, dated 2008)

Experiments:
[1] = Biodistribution of the 99mTc(N) heterocomplexes in rats (organ uptake, heart accumulation, heart/lung and heart/liver ratios); type: in vivo, female Sprague-Dawley rats
Summary of the method: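 Female Sprague-Dawley rats (200–250 g, n=3), ketamine/xylazine anaesthesia, got 300–370 kBq of each purified heterocomplex in pH 7.4 phosphate buffer (10% ethanol) via the jugular vein. They were killed at several post-injection times. Heart blood and washed, weighed organs were gamma-counted, taking whole blood as 6.5% of body weight.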

[2] = Measurement of Log k′ (partition ratio) by HPLC, PNP3 heterocomplexes; type: physicochemical; details: HPLC C18, methanol/phosphate buffer (0.02M, pH 7.4), 1.0 mL/min; extrapolated to 0% organic solvent
Procedure: For the various ^99mTc(N) heterocomplexes synthesized using PNP3 as a bisphosphinoamine compound in Example 1, Log k′ values were determined at various compositions of a mobile phase for HPLC. As the mobile phase, mixtures of methanol and phosphate buffer (0.02M, pH=7.4) were used at a flow rate of 1.0 mL/min. For each sample, the retention time was measured at a minimum of three different methanol concentrations in the mobile phase. The Log k′ values at 0% organic solvent (Log k′0) were extrapolated from the linear part of the curve Log k′=a+bC, where C is the methanol concentration, and Log k′ is Log (tR-to)/to wherein tR is HPLC retension time (min). The column void time (t0) was regarded as being equal to the elution time of pertechnetic acid.

[3] = Stability: ligand exchange reaction with cysteine or glutathione; type: physicochemical; details: phosphate buffer pH 7.4, 37° C., up to 2 hours, TLC
Procedure: The stability of the ^99mTc(N) heterocomplexes obtained using PNP3 as a bisphosphinoamine compound in Example 1 was confirmed by ligand exchange reaction with cysteine or glutathione.
250.0 μL of phosphate buffer solution (0.20 M, pH=7.4), 100 μL of water and 100 μL of each of the ^99mTc(N) heterocomplexes purified were mixed with 50 μL of each of cysteine solutions having different concentrations of 10 mM and 1.0 mM, and the resulting mixture was placed in a polypropylene test tube and incubated in a thermostat at 37° C. A blank solution was obtained by mixing an equal volume of water without addition of cysteine. Aliquots of the resulting solutions were withdrawn at 15 min, 30 min, 60 min and 2 hours after the start of the incubation, and analyzed by TLC. The same experiment as above was carried out except for using glutathione in place of cysteine. All the ^99mTc(N) heterocomplex samples were found stable against transchelation by cystein or glutathione.

## COCCC[P]1(CCCOC)CCN(CCOC)CC[P](CCCOC)(CCCOC)[99Tc+]12(#[N])[S]C(N(CCOC)CCOC)=[S]2 [[^99mTc(N) (PNP3) (DPODC)]^+]
[1]; 0 min post injection
  Biodistribution in rats: Adrenal glands: 1.65 ± 0.22 % ID/g
  Biodistribution in rats: Blood: 1.36 ± 0.02 % ID/g
  Biodistribution in rats: Brain: 0.20 ± 0.02 % ID/g
  Biodistribution in rats: Heart: 3.08 ± 0.31 % ID/g
  Biodistribution in rats: Intestine: 3.25 ± 0.60 % ID/g
  Biodistribution in rats: Kidneys: 6.36 ± 0.13 % ID/g
  Biodistribution in rats: Liver: 3.48 ± 0.24 % ID/g
  Biodistribution in rats: Lungs: 1.45 ± 0.04 % ID/g
  Biodistribution in rats: Muscle: 0.27 ± 0.02 % ID/g
  Biodistribution in rats: Spleen: 1.23 ± 0.01 % ID/g
  Biodistribution in rats: Submaxillary glands: 2.27 ± 0.20 % ID/g
[1]; 2 min post injection
  Biodistribution in rats: Adrenal glands: 0.98 ± 0.12 % ID/g
  Biodistribution in rats: Blood: 0.30 ± 0.09 % ID/g
  Biodistribution in rats: Brain: 0.02 ± 0.00 % ID/g
  Biodistribution in rats: Heart: 2.06 ± 0.13 % ID/g
  Biodistribution in rats: Intestine: 4.30 ± 1.74 % ID/g
  Biodistribution in rats: Kidneys: 8.21 ± 0.62 % ID/g
  Biodistribution in rats: Liver: 3.71 ± 0.36 % ID/g
  Biodistribution in rats: Lungs: 0.65 ± 0.06 % ID/g
  Biodistribution in rats: Muscle: 0.25 ± 0.04 % ID/g
  Biodistribution in rats: Spleen: 0.51 ± 0.04 % ID/g
  Biodistribution in rats: Submaxillary glands: 1.22 ± 0.11 % ID/g
[1]; 10 min post injection
  Biodistribution in rats: Adrenal glands: 1.49 ± 0.82 % ID/g
  Biodistribution in rats: Blood: 0.21 ± 0.00 % ID/g
  Biodistribution in rats: Brain: 0.01 ± 0.00 % ID/g
  Biodistribution in rats: Heart: 2.37 ± 0.33 % ID/g
  Biodistribution in rats: Intestine: 4.36 ± 2.28 % ID/g
  Biodistribution in rats: Kidneys: 6.82 ± 3.62 % ID/g
  Biodistribution in rats: Liver: 3.49 ± 0.09 % ID/g
  Biodistribution in rats: Lungs: 0.67 ± 0.23 % ID/g
  Biodistribution in rats: Muscle: 0.29 ± 0.08 % ID/g
  Biodistribution in rats: Spleen: 0.57 ± 0.22 % ID/g
  Biodistribution in rats: Submaxillary glands: 1.70 ± 0.60 % ID/g
[1]; 20 min post injection
  Biodistribution in rats: Adrenal glands: 1.46 ± 0.15 % ID/g
  Biodistribution in rats: Blood: 0.08 ± 0.02 % ID/g
  Biodistribution in rats: Brain: 0.01 ± 0.00 % ID/g
  Biodistribution in rats: Heart: 2.49 ± 0.31 % ID/g
  Biodistribution in rats: Intestine: 14.47 ± 4.75 % ID/g
  Biodistribution in rats: Kidneys: 5.63 ± 2.05 % ID/g
  Biodistribution in rats: Liver: 1.86 ± 0.47 % ID/g
  Biodistribution in rats: Lungs: 0.43 ± 0.05 % ID/g
  Biodistribution in rats: Muscle: 0.39 ± 0.12 % ID/g
  Biodistribution in rats: Spleen: 0.38 ± 0.04 % ID/g
  Biodistribution in rats: Submaxillary glands: 1.38 ± 0.07 % ID/g
[1]; 30 min post injection
  Biodistribution in rats: Adrenal glands: 1.31 ± 0.19 % ID/g
  Biodistribution in rats: Blood: 0.04 ± 0.00 % ID/g
  Biodistribution in rats: Brain: 0.01 ± 0.00 % ID/g
  Biodistribution in rats: Heart: 2.57 ± 0.06 % ID/g
  Biodistribution in rats: Intestine: 11.78 ± 1.78 % ID/g
  Biodistribution in rats: Kidneys: 4.88 ± 0.56 % ID/g
  Biodistribution in rats: Liver: 1.30 ± 0.71 % ID/g
  Biodistribution in rats: Lungs: 0.41 ± 0.04 % ID/g
  Biodistribution in rats: Muscle: 0.32 ± 0.08 % ID/g
  Biodistribution in rats: Spleen: 0.37 ± 0.00 % ID/g
  Biodistribution in rats: Submaxillary glands: 1.53 ± 0.17 % ID/g
[1]; 60 min post injection
  Biodistribution in rats: Adrenal glands: 1.17 ± 0.17 % ID/g
  Biodistribution in rats: Blood: 0.02 ± 0.01 % ID/g
  Biodistribution in rats: Brain: 0.01 ± 0.00 % ID/g
  Biodistribution in rats: Heart: 2.26 ± 0.60 % ID/g
  Biodistribution in rats: Intestine: 11.05 ± 5.05 % ID/g
  Biodistribution in rats: Kidneys: 3.44 ± 0.76 % ID/g
  Biodistribution in rats: Liver: 0.42 ± 0.23 % ID/g
  Biodistribution in rats: Lungs: 0.27 ± 0.09 % ID/g
  Biodistribution in rats: Muscle: 0.27 ± 0.04 % ID/g
  Biodistribution in rats: Spleen: 0.18 ± 0.10 % ID/g
  Biodistribution in rats: Submaxillary glands: 1.33 ± 0.46 % ID/g
[1]; 120 min post injection
  Biodistribution in rats: Adrenal glands: 1.14 ± 0.15 % ID/g
  Biodistribution in rats: Blood: 0.01 ± 0.00 % ID/g
  Biodistribution in rats: Brain: 0.01 ± 0.00 % ID/g
  Biodistribution in rats: Heart: 2.45 ± 0.41 % ID/g
  Biodistribution in rats: Intestine: 16.10 ± 2.10 % ID/g
  Biodistribution in rats: Kidneys: 3.43 ± 0.38 % ID/g
  Biodistribution in rats: Liver: 0.16 ± 0.04 % ID/g
  Biodistribution in rats: Lungs: 0.20 ± 0.04 % ID/g
  Biodistribution in rats: Muscle: 0.36 ± 0.12 % ID/g
  Biodistribution in rats: Spleen: 0.14 ± 0.03 % ID/g
  Biodistribution in rats: Submaxillary glands: 1.36 ± 0.14 % ID/g
[2]
  Log k′ (partition ratio): 3.18
[3]
  Stability: Stable
